Experimental data taken from patent US10941132B2, “Pyrazole derivatives” (HUA MEDICINE (SHANGHAI) Ltd., priority 2016, dated 2021).

molecular target: T1, recombinant rat mGluR5 (Rattus norvegicus, UniProt P31424); assay: Functional calcium flux assay (FLIPR), antagonist evaluation against glutamate-evoked [Ca2+]i increase; assay type: cell-based; settings: Table 1; HEK293 cells stably expressing recombinant rat mGluR5; 15 min incubation of test compound, then submaximal glutamate; read-out: IC50 value (FLIPR assay)
T1 construct: expressed in transfected cells
Procedure: Functional Calcium Clux Assay Methodology
For functional assays, HEK293 cells stably expressing recombinant rat mGluR5 were seeded in 384-well plates and dye loaded using Fluo-8. Cells were then washed to remove the un-incorporated dye. Antagonist evaluation was performed following a 15 min incubation of the test compound followed by the addition of submaximal concentration of glutamate. Intracellular calcium ([Ca^2+]i) measurements were performed using a fluorometric imaging plate reader (FLIPR, Molecular Devices). The glutamate-evoked increase in [Ca^2′]i in the presence of the test compounds was compared to the response to glutamate alone (the positive control). Antagonist inhibition curves were fitted with a 4-parameter logistic equation giving IC50 values, and Hill coefficients using an iterative nonlinear curve fitting algorithm.
The tables below provide IC50 data in this assay. In the activity column, A=IC50>1,000 and ≤5,000 nM; B=IC50>500 and ≤1,000 nM and C=IC50≤500 nM.

T1 sequence (P31424 21-1203): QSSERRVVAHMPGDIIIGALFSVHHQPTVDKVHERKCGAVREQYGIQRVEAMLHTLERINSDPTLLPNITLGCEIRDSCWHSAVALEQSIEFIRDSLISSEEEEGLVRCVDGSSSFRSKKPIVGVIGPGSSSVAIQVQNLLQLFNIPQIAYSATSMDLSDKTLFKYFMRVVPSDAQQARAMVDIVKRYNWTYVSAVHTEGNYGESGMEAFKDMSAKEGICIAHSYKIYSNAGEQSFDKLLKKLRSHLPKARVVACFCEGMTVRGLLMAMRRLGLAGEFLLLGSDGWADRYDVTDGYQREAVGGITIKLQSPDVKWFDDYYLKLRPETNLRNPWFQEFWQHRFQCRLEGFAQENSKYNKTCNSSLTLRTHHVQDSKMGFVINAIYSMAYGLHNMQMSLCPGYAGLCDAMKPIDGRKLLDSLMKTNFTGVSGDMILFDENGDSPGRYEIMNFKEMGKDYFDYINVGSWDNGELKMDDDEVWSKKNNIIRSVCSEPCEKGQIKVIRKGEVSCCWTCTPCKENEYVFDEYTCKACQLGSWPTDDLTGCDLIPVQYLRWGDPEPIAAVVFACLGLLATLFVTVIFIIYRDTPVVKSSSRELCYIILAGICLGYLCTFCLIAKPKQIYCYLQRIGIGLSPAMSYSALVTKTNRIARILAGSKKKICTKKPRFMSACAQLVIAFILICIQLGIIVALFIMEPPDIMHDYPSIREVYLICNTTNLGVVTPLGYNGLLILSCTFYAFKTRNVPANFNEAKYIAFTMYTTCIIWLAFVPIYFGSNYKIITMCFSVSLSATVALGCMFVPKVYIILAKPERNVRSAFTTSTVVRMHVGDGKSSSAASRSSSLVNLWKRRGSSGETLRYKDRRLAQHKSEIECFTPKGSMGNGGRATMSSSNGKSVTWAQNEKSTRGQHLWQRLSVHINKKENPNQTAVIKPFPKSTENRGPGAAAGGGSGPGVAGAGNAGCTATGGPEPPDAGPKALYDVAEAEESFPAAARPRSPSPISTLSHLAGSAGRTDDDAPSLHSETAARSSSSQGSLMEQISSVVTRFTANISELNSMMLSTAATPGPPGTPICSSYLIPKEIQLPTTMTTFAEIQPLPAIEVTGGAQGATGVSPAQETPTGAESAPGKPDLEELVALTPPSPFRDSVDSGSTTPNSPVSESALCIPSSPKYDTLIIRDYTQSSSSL

Q: Which IC50 does the source give for `Cc1nn(-c2ccc(F)cc2)c(C)c1C#Cc1ccccn1` [Compound 1] here?
A: ≤ 500 nM

Q: With `Cc1nn(-c2ccc(F)cc2)c(C)c1C#Cc1ncccn1` [Compound 2, 2-((1-(4-fluorophenyl)-3,5-dimethyl-1H-pyrazol-4-yl)ethynyl) pyrimidine] as the compound, how does the IC50 read?
A: ≤ 500 nM

Q: For `Cc1nn(-c2ccc(F)cc2)c(C)c1C#Cc1ccncn1` [Compound 3, 4-((1-(4-fluorophenyl)-3,5-dimethyl-1H-pyrazol-4-yl)ethynyl) pyrimidine], which IC50 is on record?
A: ≤ 500 nM

Q: Which IC50 does the source give for `Cc1nn(-c2ccc(OC(F)(F)F)cc2)c(C)c1C#Cc1ccccn1` [Compound 4, 2-((3,5-dimethyl-1-(4-(trifluoromethoxy)phenyl)-H-pyrazol-4-yl)ethynyl)pyridine] here?
A: ≤ 500 nM

Q: `Cc1nn(-c2cc(F)cc(C#N)c2)c(C)c1C#Cc1ccccn1` [Compound 5] was tested. Which IC50 did it give?
A: ≤ 500 nM

Q: How did the IC50 turn out when `COc1nn(-c2ccc(OC(F)(F)F)cc2)c(C)c1C#Cc1ccccn1` [Compound 7, 2-((3-methoxy-5-methyl-1-(4-(trifluoromethoxy)phenyl)-1H-pyrazol-4-yl)ethynyl)pyridine] was run?
A: ≤ 500 nM

Q: For `COc1nn(-c2ccc(F)cc2)c(C)c1C#Cc1ccccn1` [Compound 8, 2-((1-(4-fluorophenyl)-3-methoxy-5-methyl-1H-pyrazol-4-yl)ethynyl)pyridine], which IC50 is on record?
A: ≤ 500 nM

Q: With `COc1c(C#Cc2ccccn2)c(C)nn1-c1ccc(F)cc1` [Compound 9, 2-((1-(4-fluorophenyl)-5-methoxy-3-methyl-1H-pyrazol-4-yl)ethynyl)pyridine] as the compound, how does the IC50 read?
A: ≤ 500 nM

Q: For `COc1c(C#Cc2ccccn2)c(C)nn1-c1ccc(OC(F)(F)F)cc1` [Compound 10, 2-((3-methyl-5-methoxy-1-(4-(trifluoromethoxy)phenyl)-1H-pyrazol-4-yl)ethynyl) pyridine], which IC50 is on record?
A: 1000 to 5000 nM

Q: `Cc1nn(-c2cc(F)cc(C#N)c2)c(C(F)(F)F)c1C#Cc1ccccn1` [Compound 11, 3-fluoro-5-(3-methyl-4-(pyridin-2-ylethynyl)-5-(trifluoromethyl)-1H-pyrazol-1-yl)benzonitrile] was tested. Which IC50 did it give?
A: 1000 to 5000 nM

Q: How did the IC50 turn out when `Cc1nn(-c2ccc(F)cc2)c(C(F)(F)F)c1C#Cc1ccccn1` [Compound 12, 2-((1-(4-fluorophenyl)-3-methyl-5-(trifluoromethyl)-1H-pyrazol-4-yl)ethyny) pyridine] was run?
A: ≤ 500 nM

Q: Which IC50 does the source give for `Cc1nn(-c2ccc(OC(F)(F)F)cc2)c(C(F)(F)F)c1C#Cc1ccccn1` [Compound 13, 2-((3-methyl-1-(4-(trifluoromethoxy)phenyl)-5-(trifluoromethyl)-1H-pyrazol-4-yl)ethynyl) pyridine] here?
A: 1000 to 5000 nM

Q: How did the IC50 turn out when `Cc1nn(-c2ccc(OC(F)(F)F)cc2)c(C)c1C#Cc1ncccn1` [Compound 14, 2-((3,5-dimethyl-1-(4-(trifluoromethoxy)phenyl)-1H-pyrazol-4-yl)ethynyl) pyrimidine] was run?
A: ≤ 500 nM

Q: Which IC50 does the source give for `Cc1c(C#Cc2ccccn2)c(N(C)C)nn1-c1cc(F)cc(C#N)c1` [Compound 15, 3-(3-(dimethylaminuteso)-5-methyl-4-(2-(pyridin-2-yl)ethynyl)-1H-pyrazol-1-yl)-5-fluorobenzonitrile] here?
A: 1000 to 5000 nM

Q: For `Cc1c(C#Cc2ccccn2)c(N(C)C)nn1-c1ccc(OC(F)(F)F)cc1` [Compound 16], which IC50 is on record?
A: 1000 to 5000 nM

Q: How did the IC50 turn out when `Fc1ccc(-n2ncc(C#Cc3ncccn3)c2Cl)cc1` [Compound 17] was run?
A: ≤ 500 nM

Q: `Fc1ccc(-n2ncc(C#Cc3ccccn3)c2Cl)cn1` [Compound 18] was tested. Which IC50 did it give?
A: ≤ 500 nM

Q: With `Fc1ccc(-n2ncc(C#Cc3ncccn3)c2Cl)cn1` [Compound 19, 2-((5-chloro-1-(6-fluoropyridin-3-yl)-1H-pyrazol-4-yl)ethynyl)pyrimidine] as the compound, how does the IC50 read?
A: ≤ 500 nM

Q: `Fc1ccc(-n2ncc(C#Cc3ccccn3)c2Cl)cc1` [Compound 20] was tested. Which IC50 did it give?
A: ≤ 500 nM

Q: `FC(F)(F)Oc1ccc(-n2ncc(C#Cc3ccccn3)c2Cl)cc1` [Compound 21] was tested. Which IC50 did it give?
A: ≤ 500 nM

Q: With `FC(F)(F)Oc1ccc(-n2ncc(C#Cc3ncccn3)c2Cl)cc1` [Compound 22] as the compound, how does the IC50 read?
A: ≤ 500 nM

Q: Which IC50 does the source give for `Fc1ccc(-n2cc(C#Cc3ccccn3)cn2)cn1` [Compound 23] here?
A: ≤ 500 nM

Q: For `Cc1nn(-c2ccc(F)nc2)c(C)c1C#Cc1ccccn1` [Compound 24], which IC50 is on record?
A: ≤ 500 nM

Q: `Cc1nn(-c2ccc(F)cn2)c(C)c1C#Cc1ccccn1` [Compound 25, 2-(3,5-dimethyl-4-(pyridin-2-ylethynyl)-H-pyrazol-1-yl)-5-fluoropyridine] was tested. Which IC50 did it give?
A: ≤ 500 nM

Q: How did the IC50 turn out when `COCCOc1ccc(-n2cc(C#Cc3ccccn3)cn2)cc1` [Compound 26, 2-((1-(4-(2-methoxyethoxy)phenyl)-1H-pyrazol-4-yl)ethynyl) pyridine] was run?
A: ≤ 500 nM

Q: For `Fc1ccc(-n2cc(C#Cc3ccccn3)cn2)nc1` [Compound 27, 5-fluoro-2-(4-(pyridin-2-ylethynyl)-1H-pyrazol-1-yl)pyridine], which IC50 is on record?
A: ≤ 500 nM

Q: Which IC50 does the source give for `COCCOc1ccc(-n2cc(C#Cc3ccccn3)cn2)cn1` [Compound 28, 2-(2-methoxyethoxy)-5-(4-(pyridin-2-ylethynyl)-1H-pyrazol-1-yl) pyridine] here?
A: ≤ 500 nM

Q: With `COCCOc1nn(-c2cc(F)cc(C#N)c2)c(C)c1C#Cc1ccccn1` [Compound 29, 3-fluoro-5-(3-(2-methoxyethoxy)-5-methyl-4-(pyridin-2-ylethynyl)-1H-pyrazol-1-yl)benzonitrile] as the compound, how does the IC50 read?
A: ≤ 500 nM

Q: With `COCCOc1nn(-c2cc(F)cc(C#N)c2)c(C)c1C#Cc1ncccn1` [Compound 30, 3-fluoro-5-(3-(2-methoxyethoxy)-5-methyl-4-(pyrimidin-2-ylethynyl)-1H-pyrazol-1-yl)benzonitrile] as the compound, how does the IC50 read?
A: 1000 to 5000 nM

Q: How did the IC50 turn out when `COCCOc1nn(-c2ccc(OC(F)(F)F)cc2)cc1C#Cc1ccccn1` [Compound 31, 2-((3-(2-methoxyethoxy)-1-(4-(trifluoromethoxy)phenyl)-1H-pyrazol-4-yl)ethynyl)pyridine] was run?
A: 1000 to 5000 nM

Q: How did the IC50 turn out when `COCCOc1nn(-c2cc(F)cc(C#N)c2)cc1C#Cc1ccccn1` [Compound 32, 3-fluoro-5-(3-(2-methoxyethoxy)-4-(pyridin-2-ylethynyl)-1H-pyrazol-1-yl)benzonitrile] was run?
A: ≤ 500 nM

Q: `Fc1cncc(-n2cc(C#Cc3ccccn3)cn2)c1` [Compound 33] was tested. Which IC50 did it give?
A: ≤ 500 nM

Q: How did the IC50 turn out when `Fc1ccc(-n2cc(C#Cc3ncccn3)cn2)cn1` [Compound 34, 2-((1-(6-fluoropyridin-3-yl)-1H-pyrazol-4-yl)ethynyl)pyrimidine] was run?
A: ≤ 500 nM

Q: Which IC50 does the source give for `FC(F)(F)c1ccc(-n2ncc(C#Cc3ccccn3)c2Cl)cc1` [Compound 35, 2-((5-chloro-1-(4-(trifluoromethyl)phenyl)-1H-pyrazol-4-yl)ethynyl)pyridine] here?
A: ≤ 500 nM

Q: `FC(F)(F)c1ccc(-n2ncc(C#Cc3ncccn3)c2Cl)cc1` [Compound 36, 2-((5-chloro-1-(4-(trifluoromethyl)phenyl)-1H-pyrazol-4-yl)ethynyl) pyrimidine] was tested. Which IC50 did it give?
A: ≤ 500 nM

Q: With `Cc1c(C#Cc2ccccn2)c(OC(F)F)nn1-c1cc(F)cc(C#N)c1` [Compound 37, 3-(3-(difluoromethoxy)-5-methyl-4-(pyridin-2-ylethynyl)-1H-pyrazol-1-yl)-5-fluorobenzonitrile] as the compound, how does the IC50 read?
A: ≤ 500 nM

Q: How did the IC50 turn out when `N#Cc1cc(F)cc(-n2cc(C#Cc3ccccn3)c(Cl)n2)c1` [Compound 38, 3-(3-chloro-4-(pyridin-2-ylethynyl)-1H-pyrazol-1-yl)-5-fluorobenzonitrile] was run?
A: ≤ 500 nM

Q: How did the IC50 turn out when `N#Cc1cc(F)cc(-n2cc(C#Cc3ncccn3)c(Cl)n2)c1` [Compound 39, 3-(3-chloro-4-(pyrimidin-2-ylethynyl)-1H-pyrazol-1-yl)-5-fluorobenzonitrile] was run?
A: ≤ 500 nM
